# In US7037905B2, “Pharmaceutical use of boronic acids and esters thereof” (Novo Nordisk A/S, priority 2002, dated 2006):
# Molecular target: T1, HSL (Homo sapiens, UniProt Q05469)
# T1 sequence (Q05469 1-1076): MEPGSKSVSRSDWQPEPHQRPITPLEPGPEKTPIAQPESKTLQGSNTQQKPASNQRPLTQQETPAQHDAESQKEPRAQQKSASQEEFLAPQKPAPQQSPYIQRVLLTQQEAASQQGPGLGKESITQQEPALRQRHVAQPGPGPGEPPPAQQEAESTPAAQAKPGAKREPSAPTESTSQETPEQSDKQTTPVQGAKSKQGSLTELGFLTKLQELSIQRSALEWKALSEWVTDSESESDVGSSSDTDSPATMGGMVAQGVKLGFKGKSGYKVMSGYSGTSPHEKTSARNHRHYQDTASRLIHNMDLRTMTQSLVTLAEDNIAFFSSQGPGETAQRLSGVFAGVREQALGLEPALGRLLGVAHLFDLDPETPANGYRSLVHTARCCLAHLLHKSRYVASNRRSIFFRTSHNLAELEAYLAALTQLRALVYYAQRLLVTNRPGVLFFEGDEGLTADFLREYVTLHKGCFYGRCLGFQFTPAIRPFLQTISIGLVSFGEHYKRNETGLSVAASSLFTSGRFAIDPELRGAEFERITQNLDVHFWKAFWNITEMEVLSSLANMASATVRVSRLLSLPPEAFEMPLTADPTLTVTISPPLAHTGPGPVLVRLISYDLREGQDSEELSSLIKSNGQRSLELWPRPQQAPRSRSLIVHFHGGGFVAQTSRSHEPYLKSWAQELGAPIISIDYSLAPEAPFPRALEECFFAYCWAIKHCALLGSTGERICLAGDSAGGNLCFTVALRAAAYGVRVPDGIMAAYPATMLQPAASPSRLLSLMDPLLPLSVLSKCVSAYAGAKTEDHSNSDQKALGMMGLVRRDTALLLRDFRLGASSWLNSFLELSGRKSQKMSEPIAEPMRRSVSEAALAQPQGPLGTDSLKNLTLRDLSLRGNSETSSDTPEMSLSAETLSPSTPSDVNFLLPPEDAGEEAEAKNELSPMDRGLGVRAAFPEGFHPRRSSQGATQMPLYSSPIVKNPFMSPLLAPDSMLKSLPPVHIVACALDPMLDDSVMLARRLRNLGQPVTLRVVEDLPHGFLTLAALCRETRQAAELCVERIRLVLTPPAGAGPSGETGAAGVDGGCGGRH
# Experiment: TEST 3180.2 HSL: percent inhibition at 10 μM, 3H-Triolein lipid emulsion
# Type: biochemical
# Conditions: 10 µM
row,Compound,TEST 3180.2 HSL Activity (%)
1,3-Fluoro-4-phenylboronic acid [Example 72],97

# Same assay, conditions: 10 μM concentration; percent activity relative to an un-inhibited sample; 30 min preincubation, 30 min reaction at 25° C.
row,Compound,TEST 3180.2 HSL Activity (%)
1,"COC1OC2COB(c3ccccc3)OC2C(O)C1O (stereo not shown) [Example 78, 6-Methoxy-2-phenyl-hexahydro-pyrano[3,2-a][1,3,2]dioxaborinine-7,8-diol]",82
2,"CC1(C)OB(c2ccsc2[Si](C)(C)C)OC1(C)C [Example 81, 3′-(4,4,5,5-TETRAMETHYL-1,3,2-DIOXABOROLAN-2-YL)-2-trimethylsilylthiophen]",85
3,"OB(O)c1ccc(OCc2ccccc2)c(F)c1 [Example 62, 3-FLUORO-4-BENZYLOXYPHENYL)BORONIC ACID]",93
4,"CC1(C)OB(c2csc([N+](=O)[O-])c2)OC1(C)C [Example 82, 4′-(4,4,5,5-TETRAMETHYL-1,3,2-DIOXABOROLAN-2-YL)2-nitrothiophene]",96

# Same assay, conditions: 10 μM concentration; percent activity relative to an un-inhibited sample; 30 min preincubation, 30 min reaction at 25° C.; read-out: TEST 3180.2 HSL Activity (%)
row,Compound,activity at 10 µM [%]
1,"CCCCCc1ccc(B(O)O)c(F)c1F [Example 61, 2,3-DIFLUORO-4-PENTYLPHENYLBORONIC ACID]",85
2,"OB(O)c1ccc(Cl)s1 [Example 94, 5-Chlorothiophene-2-boronic acid]",17
3,"CC1(C)COB(c2ccccc2C#N)OC1 [Example 39, 2-(5,5-Dimethyl-[1,3,2]dioxaborinan-2-yl)-benzonitrile]",97
4,"OB(O)c1cc(Br)cc(Br)c1 [Example 44, 3,5-Dibromophenylboronic acid]",71
5,"c1ccc2c(c1)OB(c1ccsc1)O2 [Example 85, 2-THIEN-3-YL-1,3,2-BENZODIOXABOROLE]",89
6,"OB(O)c1ccccc1Br [Example 48, 2-Bromophenylboronic acid]",81
7,"OB(O)c1ccc(Br)c(F)c1F [Example 71, 2,3-Difluoro-4-bromophenylboronic acid]",61
8,"Cc1ccc(B(O)O)s1 [Example 90, 5-Methylthiophene-2-boronic acid]",48
9,"OB(O)c1cc2ccccc2o1 [Example 91, BENZO[B]FURAN-2-BORONIC ACID]",57
10,"OB(O)c1cccc(Cl)c1 [Example 53, 3-Chlorophenylboronic acid]",34
11,"COc1ccc(Cl)cc1B(O)O [Example 43, 5-CHLORO-2-METHOXYPHENYLBORONIC ACID]",36
12,"CC(=O)Nc1ccc(B2OC(C)(C)C(C)(C)O2)cc1 [Example 68, 4′-(4,4,5,5-TETRAMETHYL-1,3,2-DIOXABOROLAN-2-YL)ACETANILIDE]",86
13,"OB(O)c1cc(Cl)cc(Cl)c1 [Example 57, 3,5-Dichlorophenylboronic acid]",46
14,"OB(O)c1csc2ccccc12 [Example 83, 1-BENZOTHIOPHEN-3-YLBORONIC ACID]",76
15,"OB(O)c1cccc(-c2ccccc2)c1 [Example 46, 3-phenylphenylboronic acid]",96
16,"CC1(C)COB(c2ccc(Br)cc2)OC1 [Example 37, 2-(4-BROMOPHENYL)-5,5-DIMETHYL-1,3,2-DIOXABORINANE]",83
17,"OB(O)c1ccco1 [Example 93, Furan-2-boronic acid]",89
18,"OB(O)c1ccccc1Cl [Example 52, 2-Chlorophenylboronic acid]",86
19,"CC(=O)c1ccc(B(O)O)s1 [Example 96, 5-Acetylthiophene-2-boronic acid]",68
20,"OB(O)c1cc(Cl)ccc1Cl [Example 65, 2,5-Dichlorophenylboronic acid]",55
21,"OB(O)c1ccc(OCc2ccccc2)cc1 [Example 33, 4-Benzyloxyphenylboronic acid]",85
22,"OB(O)c1c(Cl)cccc1Cl [Example 50, 2,6-Dichlorophenylboronic acid]",88
23,"Ic1cccc(OCC2COB(c3ccccc3)O2)c1 (stereo not shown) [Example 80, 4-(3-Iodo-phenoxymethyl)-2-phenyl-[1,3,2]dioxaborolane]",80
24,"OB(O)c1cccs1 [Example 97, Thiophene-2-boronic acid]",66
25,"CCOc1cccc(B(O)O)c1 [Example 45, 3-Ethoxyphenylboronic acid]",90
26,"OB(O)c1cccc(Cl)c1Cl [Example 70, 2,3-Dichlorophenylboronic acid]",66

row,Compound,activity at 10 µM [%]
1,"COc1ccc(F)cc1B(O)O [Example 73, 2-Methoxy5-fluorophenylboronic acid]",62
2,"Cc1ccc(B(O)O)o1 [Example 89, 5-METHYLFURAN-2-BORONIC ACID]",87
3,"OB(O)c1cc(Cl)cc(Cl)c1Cl [Example 64, 2,3,5-Trichlorophenylboronic acid]",76
4,"Cc1csc(B(O)O)c1 [Example 88, 4-METHYLTHIOPHENE-2-BORONIC ACID]",49
5,"OB(O)c1cccc(OC(F)(F)F)c1 [Example 54, 3-(TRIFLUOROMETHOXY)BENZENEBORONIC ACID]",27
6,"N#Cc1ccc(B(O)O)s1 [Example 95, 5-Cyanothiophene-2-boronic acid]",49
7,"OB(O)c1cccc(F)c1 [Example 60, 3-Fluorophenylboronic acid]",47
8,"CC1(C)COB(c2ccccc2F)OC1 [Example 40, 2-(2-Fluoro-phenyl)-5,5-dimethyl-[1,3,2]dioxaborinane]",68
9,"OB(O)c1cc(F)c(F)c(F)c1 [Example 63, 3,4,5-Trifluorophenylboronic acid]",26
10,"CC1(C)COB(c2cc(F)cc(F)c2)OC1 [Example 35, 2-(3,5-DIFLUOROPHENYL)-5,5-DIMETHYL-1,3,2-DIOXABORINANE]",38
11,"CCCCCC1COB(c2ccc(C(=O)O)c(F)c2)OC1 [Example 79, 2-Fluoro-4-(5-pentyl-[1,3,2]dioxaborinan-2-yl)-benzoic acid]",100
12,"OB(O)c1ccc(F)c(F)c1 [Example 69, 3,4-Difluorophenylboronic acid]",45
13,"OB(O)c1cccc(Br)c1 [Example 49, 3-Bromophenylboronic acid]",33
14,"OB(O)c1cc(F)ccc1F [Example 67, 2,5-Difluorophenylboronic acid]",34
15,"O=Cc1sccc1B(O)O [Example 84, 2-FORMYL-3-THIOPHENEBORONIC ACID]",92
16,"OB(O)c1cc(C(F)(F)F)cc(C(F)(F)F)c1 [Example 56, 3,5-Bis(Trifluoromethyl)phenylboronic acid]",89
17,"CC1(C)COB(c2ccccc2Cl)OC1 [Example 38, 2-(2-chloroPHENYL)-5,5-DIMETHYL-1,3,2-DIOXABORINANE]",89
18,"OB(O)c1cccc(C(F)(F)F)c1 [Example 55, 3-Trifluoromethylphenylboronic acid]",21
19,"CCOC(=O)c1ccccc1B1OCC(C)(C)CO1 [Example 42, 2-(5,5-Dimethyl-[1,3,2]dioxaborinan-2-yl)-benzoic acid ethyl ester]",93
20,"OB(O)c1cccc(F)c1F [Example 66, 2,3-Difluorophenylboronic acid]",55
21,"OB(O)c1cc2ccccc2s1 [Example 92, Benzo[B]thiophene-2-boronic acid]",53
22,"OB(O)c1ccc(F)c(Cl)c1 [Example 58, 3-Chloro-4-fluorophenylboronic acid]",35
23,"OB(O)c1cc(F)cc(F)c1 [Example 59, 3,5-Difluorophenylboronic acid]",25
24,"Cc1cccc(B(O)O)c1 [Example 51, 3-Methylphenylboronic acid]",64
25,"OB(O)c1ccc(F)cc1 [Example 47, 4-fluorophenylboronic acid]",65
26,"OB(O)c1sccc1Br [Example 98, 3-Bromothiophene-2-boronic acid]",84

# Same assay, conditions: read-out: TEST 3180.2 HSL Activity (%)
row,Compound,activity at 10 µM [%]
1,"Cc1cc(B2OCCCO2)sc1C=O [Example 87, 2-(2-FORMYL-3-METHYLTHIEN-5-YL)-1,3,2-DIOXABORINANE]",75
